Data as given in patent US20060134102A1, “Lymphotoxin beta receptor agents in combination with chemotherapeutic agents” (Biogen Idec MA Inc., priority 2002, published 2006).
“And” between values parts separate entries of the source, which are not always exact repeats. Identical values can stand only once.

How the values were obtained:
[1] = test system: WiDr human colorectal adenocarcinoma; experiment: WiDr xenograft model: growth of established WiDr human colorectal tumors in athymic nude mice (tumor volume/weight, % T/C, Fa, Combination Index); details: for Volume Decrease: vs control; for Individual Fractional Inhibition of Tumor Volume / Individual Tumor Volumes: individual animals
Description: Therapeutic agents, i.e. LTβR agonist and chemotherapeutic agents, were administered to athymic nude mice who had been implanted with WiDr tumor cells.
WiDr cells were obtained from the American Type Culture Collection (Manassas, Va.). Cells were grown in vitro in 90% Eagle's Minimum Essential Medium with 2 mM L-glutamine and Earle's Balanced Salt Solution (BSS) adjusted to contain 1.5 g/L sodium bicarbonate, 0.1 mM non-essential amino acids, and 1 mM sodium pyruvate plus 10% fetal bovine serum (FBS) without antibiotics (5% CO2). Bacterial cultures were performed on aliquots of the tumor homogenate preparation that was implanted into the mice to ensure that all cultures were negative for bacterial contamination at both 24 and 48 hours post implant.
When the tumors measured approximately 5 mm in length by 5 mm in width, mice were randomized to treatment and control groups. Body weight measurements were recorded twice-weekly beginning on Day 0.
Tumor measurements were determined using Vernier calipers. Tumor size measurements were recorded regularly according to the study, until the termination of the study. The formula to calculate volume for a prolate ellipsoid was used to estimate tumor volume (mm^3) from 2-dimensional tumor measurements: tumor volume (mm^3)=(length×width^2 [L×W^2])÷2. Assuming unit density, volume was converted to weight (i.e., 1 mm^3=1 mg). Tumor growth inhibition was assessed as % T/C, where T is the mean tumor weight of the treatment group and C is the mean tumor weight of the control group. […] Animals were sacrificed accordingly.
Statistical analysis of the tumor weight measurements was performed according to standard statistical methods. Mean, standard deviation (SD), and standard error of the mean (SEM) were determined for body weight and tumor weight for all dose groups at all assessments.
Antitumor efficacy was determined by comparing each treatment group's tumor volume with the control group's tumor volume. Mean tumor volume decrease was calculated as the difference between the control group and the treatment group mean tumor volume. The fractional inhibition of tumor volume, i.e., the fraction affected (Fa), was calculated by dividing the treatment group mean tumor volume decrease by the control group mean tumor volume. […] Further statistical analysis was performed accordingly.

[2] = test system: KM-20L2 human colorectal adenocarcinoma; experiment: KM-20L2 xenograft model: growth of established KM-20L2 human colorectal tumors in athymic nude mice (tumor volume/weight, % T/C, Fa, Combination Index); format: in vivo; details: for Mean Fraction Affected (Fa): Camptosar 3 mg/kg alone; for Fraction affected (Fa): Camptosar 6.0 mg/kg given separately

For `N.N.[Cl][Pt][Cl]` [Cisplatin, cisplatin, reference compound], the “Fa (fractional inhibition of tumor volume), group mean” value ([1]; Cisplatin 1 mg/kg, day 44) was 0.083, the “Fa, individual animals” value ([1]; Cisplatin 1 mg/kg, day 44) was −0.478 and 0.344 and 0.025 and −0.016 and 0.140 and 0.102 and 0.222 and 0.128 and 0.098 and 0.268 and the “Tumor Volume, group mean” value ([1]; Cisplatin 1 mg/kg, day 44) was 1300.4. The “Tumor volume, individual animals” value ([1]; Cisplatin 1 mg/kg, day 44) was 2096.4 and 930.1 and 1383.3 and 1440.7 and 1220.3 and 1274.3 and 1103.9 and 1236.7 and 1280.0 and 1038.3, the “Volume Decrease vs control, group mean” value ([1]; Cisplatin 1 mg/kg, day 44) was 118.2 and the “Fa (fractional inhibition of tumor volume), group mean” value ([1]; Cisplatin 2 mg/kg, day 44) was 0.055. The “Fa, individual animals” value ([1]; Cisplatin 2 mg/kg, day 44) was 0.082 and −0.061 and −0.036 and 0.618 and −0.290 and −0.523 and 0.241 and 0.054 and 0.316 and 0.151, the “Tumor Volume, group mean” value ([1]; Cisplatin 2 mg/kg, day 44) was 1340.1 and the “Tumor volume, individual animals” value ([1]; Cisplatin 2 mg/kg, day 44) was 1301.9 and 1505.3 and 1469.5 and 541.4 and 1829.8 and 2160.2 and 1076.4 and 1342.0 and 970.2 and 1204.2. The “Volume Decrease vs control, group mean” value ([1]; Cisplatin 2 mg/kg, day 44) was 78.5, the “Activity by NCI criteria (% T/C of 42 or less)” value ([1]; cisplatin 2 mg/kg to 0.25 mg/kg) was “inactive” and the “Tumor growth vs saline control” value ([1]; cisplatin 2 mg/kg, 1 mg/kg and 0.25 mg/kg, day 50) was “did not differ significantly”.

In the case of `CC(=O)O[C@H]1C(=O)[C@@]2(C)[C@H]([C@H](OC(=O)c3ccccc3)[C@]3(O)C[C@H](OC(=O)[C@H](O)[C@@H](NC(=O)c4ccccc4)c4ccccc4)C(C)=C1C3(C)C)[C@]1(OC(C)=O)CO[C@@H]1C[C@@H]2O` [Taxol, reference compound], the “Fa (Fraction Affected)” value ([1]; Day 34, Taxol 12.5 mg/kg) is reported as 0.171, the “Tumor Volume” value ([1]; Day 34, Taxol 12.5 mg/kg) is reported as 1141.1 and the “Fa (Fraction Affected)” value ([1]; Day 34, Taxol 18.75 mg/kg) is reported as 0.588. For the same compound, the “Tumor Volume” value ([1]; Day 34, Taxol 18.75 mg/kg) was 567.5, the “Volume Decrease” value ([1]; Day 34, Taxol 18.75 mg/kg) was 808.9 and the “Fa (Fraction Affected)” value ([1]; Day 34, Taxol 25 mg/kg) was 0.812. The “Tumor Volume” value ([1]; Day 34, Taxol 25 mg/kg) was 259.1, the “Volume Decrease” value ([1]; Day 34, Taxol 25 mg/kg) was 1117.3 and the “Median Effect Dose” value ([1]; Day 34, Taxol Given Separately) was 12.6 mg/kg. For the same compound, the “Median Effect Dose” value ([1]; Day 34, Taxol dose, Combined (0.333:1) with huCBE11) was 6.6 mg/kg, the “Individual Fractional Inhibition of Tumor Volume” value ([1]; Day 34, Taxol 6.25) was 0.231 and −0.036 and 0.421 and 0.375 and 0.469 and 0.157 and 0.552 and 0.284 and −0.217 and 0.168 and the “Individual Tumor Volumes” value ([1]; Day 34, Taxol 6.25) was 1058.1 and 1425.5 and 796.7 and 860.4 and 730.5 and 1159.9 and 616.0 and 985.1 and 1675.4 and 1144.5. For the same compound, the “Individual Fractional Inhibition of Tumor Volume” value ([1]; Day 34, Taxol 12.5) was 0.854 and 0.191 and 0.140 and 0.037 and −0.278 and 0.170 and 0.192 and −0.130 and 0.198 and 0.336, the “Individual Tumor Volumes” value ([1]; Day 34, Taxol 12.5) was 201.1 and 1113.1 and 1183.1 and 1325.2 and 1759.5 and 1143.0 and 1112.7 and 1554.9 and 1104.0 and 914.1 and the “Tumor growth vs vehicle control” value ([1]; Taxol 12.5 mg/kg, […] and 3.13 mg/kg) was “did not differ significantly”. The “% T/C” value ([1]; Taxol 18.75 mg/kg, Days 21 to 34) was “below 42%”, the “% T/C” value ([1]; Taxol 25 mg/kg, Days 13 to 39) was “below 42%” and the “% T/C” value ([1]; Taxol 25 mg/kg, Days 21 to 50) was “below 42%”. For the same compound, the “% T/C” value ([1]; Taxol 12.5, 6.25 and 3.13 mg/kg, throughout the study) was over 82%.

`CCc1c2c(nc3ccc(OC(=O)N4CCC(N5CCCCC5)CC4)cc13)-c1cc3c(c(=O)n1C2)COC(=O)[C@]3(O)CC` [Camptosar, irinotecan, reference compound] was tested, and the “Activity by NCI criteria (% T/C at or below 42)” value ([2]; Camptosar) was “active”, the “Mean Fraction Affected (Fa)” value ([2]; Day 9) was 0.098 and the “Mean Fraction Affected (Fa)” value ([2]; Day 13) was 0.327. The “Mean Fraction Affected (Fa)” value ([2]; Day 20) was 0.593, the “Mean Fraction Affected (Fa)” value ([2]; Day 23) was 0.521 and the “Mean Fraction Affected (Fa)” value ([2]; Day 30) was 0.406. The “Inhibition of tumor growth vs saline control” value ([2]; Camptosar 6 mg/kg days 13 through 51, 3 mg/kg days 13 through 48, […] days 9 through 44, separate study) was “statistically significant inhibition of tumor growth”, the “Fraction affected (Fa)” value ([2]; Day 16) was 0.594 and the “Fraction affected (Fa)” value ([2]; Day 20) was 0.781. For the same compound, the “Fraction affected (Fa)” value ([2]; Day 23) was 0.759, the “Fraction affected (Fa)” value ([2]; Day 27) was 0.701 and the “Fraction affected (Fa)” value ([2]; Day 30) was 0.607. The “Fraction affected (Fa)” value ([2]; Day 34) was 0.564, the “Fraction affected (Fa)” value ([2]; Day 37) was 0.495 and the Tumor inhibition ([2]; Camptosar groups, end of day 55, separate study) was “no significant tumor inhibition”. For the same compound, the “Median Effect Dose” value ([2]; Combined (1:0.63 huCBE11:Camptosar), dose of the labelled agent in the combination, Day 13) was 6.7 mg/kg, the “Median Effect Dose” value ([2]; Combined (1:0.63 huCBE11:Camptosar), dose of the labelled agent in the combination, Day 16) was 1.6 mg/kg and the “Median Effect Dose” value ([2]; Combined (1:0.63 huCBE11:Camptosar), dose of the labelled agent in the combination, Day 20) was 0.6 mg/kg. For the same compound, the “Median Effect Dose” value ([2]; Combined (1:0.63 huCBE11:Camptosar), dose of the labelled agent in the combination, Day 23) was 0.7 mg/kg, the “Median Effect Dose” value ([2]; Combined (1:0.63 huCBE11:Camptosar), dose of the labelled agent in the combination, Day 27) was 1.0 mg/kg and the “Median Effect Dose” value ([2]; Combined (1:0.63 huCBE11:Camptosar), dose of the labelled agent in the combination, Day 30) was 1.1 mg/kg. For the same compound, the “Median Effect Dose” value ([2]; Combined (1:0.63 huCBE11:Camptosar), dose of the labelled agent in the combination, Day 34) was 1.1 mg/kg, the “Median Effect Dose” value ([2]; Combined (1:0.63 huCBE11:Camptosar), dose of the labelled agent in the combination, Day 37) was 1.0 mg/kg and the “Median Effect Dose” value ([2]; Combined (1:0.63 huCBE11:Camptosar), dose of the labelled agent in the combination, Day 41) was 1.0 mg/kg. The “Median Effect Dose” value ([2]; Given Separately, Day 13) was 12.4 mg/kg, the “Median Effect Dose” value ([2]; Given Separately, Day 16) was 4.0 mg/kg and the “Median Effect Dose” value ([2]; Given Separately, Day 20) was 2.3 mg/kg. For the same compound, the “Median Effect Dose” value ([2]; Given Separately, Day 23) was 2.7 mg/kg, the “Median Effect Dose” value ([2]; Given Separately, Day 27) was 3.2 mg/kg and the “Median Effect Dose” value ([2]; Given Separately, Day 30) was 4.2 mg/kg. For the same compound, the “Median Effect Dose” value ([2]; Given Separately, Day 34) was 4.7 mg/kg, the “Median Effect Dose” value ([2]; Given Separately, Day 37) was 6.0 mg/kg and the “Median Effect Dose” value ([2]; Given Separately, Day 41) was 7.3 mg/kg. For the same compound, the “Fa (Fraction Affected), group mean” value ([1]; Camptosar 3 mg/kg, day 21) was 0.238, the “Fa, individual animals” value ([1]; Camptosar 3 mg/kg, day 21) was 0.336 and 0.314 and 0.078 and 0.269 and 0.245 and −0.068 and 0.513 and 0.208 and 0.093 and the “Fa (Fraction Affected), group mean” value ([1]; Camptosar 6 mg/kg, day 21) was 0.441. The “Fa, individual animals” value ([1]; Camptosar 6 mg/kg, day 21) was 0.302 and 0.473 and 0.521 and 0.544 (2×) and 0.590 and 0.110 and 0.614 and 0.277, the “Fa (Fraction Affected), group mean” value ([1]; Camptosar 10 mg/kg, day 21) was 0.476 and the “Fa, individual animals” value ([1]; Camptosar 10 mg/kg, day 21) was 0.464 and 0.347 and 0.575 and 0.375 and 0.573 and 0.163 and 0.516 and 0.684 and 0.648. The “Activity by NCI criteria (% T/C of 42 or less)” value ([1]; Camptosar […] to 10 mg/kg) was “inactive”, the “Median Effect Dose” value ([1]; Camptosar combined with huCBE11 (0.555:1), day 21) was 5.7 mg/kg and the “Median Effect Dose” value ([1]; Camptosar given separately, day 21) was 9.8 mg/kg.

With `COc1cccc2c1C(=O)c1c(O)c3c(c(O)c1C2=O)C[C@@](O)(C(=O)CO)C[C@@H]3O[C@H]1C[C@H](N)[C@H](O)[C@H](C)O1` [Adriamycin, adriamycin, reference compound] the “Fa (fractional inhibition of tumor volume), group mean” value ([1]; Adriamycin 4 mg/kg, day 35) was −0.204, the “Fa, individual animals” value ([1]; Adriamycin 4 mg/kg, day 35) was 0.033 and −0.408 and −1.391 and 0.530 and −0.660 and −0.137 and −0.379 and −0.389 and 0.251 and 0.512 and the “Tumor Volume, group mean” value ([1]; Adriamycin 4 mg/kg, day 35) was 1353.0. The “Tumor volume, individual animals” value ([1]; Adriamycin 4 mg/kg, day 35) was 1582.5 and 2687.5 and 528.1 and 1865.5 and 1277.8 and 1550.2 and 1560.9 and 842.1 and 548.3, the “Volume Decrease vs control, group mean” value ([1]; Adriamycin 4 mg/kg, day 35) was −229.0 and the “Fa (fractional inhibition of tumor volume), group mean” value ([1]; Adriamycin 6 mg/kg, day 35) was 0.089. For the same compound, the “Fa, individual animals” value ([1]; Adriamycin 6 mg/kg, day 35) was −0.295 and 0.095 and 0.380 and 0.462 and 0.198 and 0.209 and 0.057 and −0.060 and 0.522 and −0.674, the “Tumor Volume, group mean” value ([1]; Adriamycin 6 mg/kg, day 35) was 1023.5 and the “Tumor volume, individual animals” value ([1]; Adriamycin 6 mg/kg, day 35) was 1455.4 and 696.6 and 605.1 and 901.8 and 889.3 and 1191.2 and 537.2 and 1881.7. For the same compound, the “Volume Decrease vs control, group mean” value ([1]; Adriamycin 6 mg/kg, day 35) was 100.5, the “Activity by NCI criteria (% T/C at or below 42)” value ([1]; adriamycin 1 mg/kg to 6 mg/kg intraperitoneal, all tested doses) was “inactive” and the “Inhibition of tumor growth” value ([1]; adriamycin 6 mg/kg or 4 mg/kg, day 35, separate study) was “did not produce a significant inhibition”. For the same compound, the “Tumor growth vs vehicle control” value ([1]; adriamycin groups, day 42 (end of study)) was “no significant difference”.
